Assay results from PMC3731299, “Isoniazid Inhibits the Heme-Based Reactivity of Mycobacterium tuberculosis Truncated Hemoglobin N” (PLoS ONE, 2013).
Read-outs that look alike come from different tables or passages of the source. Marks after values point to notes of the source that are not given here.

Key:
Mt-trHbN(II) = target: T1, Mt-trHbN(II) (Mycobacterium tuberculosis, UniProt P9WN25); assay type: binding
T1 construct: made in house

Sperm whale Mb(II) = system: Sperm whale Mb(II); set-up: method as in PMID 3733708; conditions: pH 7.0, 20.0°C; cited from earlier work
Mt-trHbN(III) [1] = target: T2, Mt-trHbN(III) (Mycobacterium tuberculosis, UniProt P9WN25); assay type: biochemical
T2 construct: made in house

Mt-trHbN(III) [2] = target: T2, Mt-trHbN(III); test: biochemical; assay type: binding; conditions: pH 7
Sperm whale Mb(III) = conditions: pH 7.0, 25.0°C, cited from earlier work
Mt-trHbN(III) [3] = target: T2, Mt-trHbN(III); test: Peroxynitrite isomerization by Mt-trHbN(III) in the absence and presence of isoniazid; assay type: biochemical; conditions: [azide] >10×H
Protocol: Rapid-mixing experiments were performed using either the SX18.MV stopped-flow apparatus (Applied Photophysics, Salisbury, United Kingdom) or the SFM-20 stopped-flow apparatus (Bio-Logic SAS, Claix, France); the dead time was 1.0 ms.
Kinetics of peroxynitrite isomerization by Mt-trHbN(III) in the absence and presence of isoniazid was recorded spectrophotometrically at 302 nm (ε302 nm = 1.705×10^3 M^−1 cm^−1) [60]–[67] in the absence and presence of Mt-trHbN(III) (final concentration 2.5×10^−6 – 1.0×10^−5 M) and isoniazid (final concentration 3.0×10^−5 – 4.0×10^−4 M) by rapid mixing the Mt-trHbN(III) or buffer solution with the peroxynitrite solution (final concentration 2.5×10^−4 M).
Kinetics of peroxynitrite isomerization by Mt-trHbN(III) in the absence and presence of isoniazid was analyzed in the framework of the minimum reaction mechanism depicted by Scheme D [60]–[67]: [drawing 11] (D)
Values of the pseudo-first-order rate constant for Mt-trHbN(III)-mediated peroxynitrite isomerization (i.e., l ^obs) were determined in the absence and presence of isoniazid according to Equation 8 [60]–[67]: [drawing 12] (8)
Values of the second-order rate constant for Mt-trHbN(III)-mediated peroxynitrite isomerization (i.e., l on) and of the first-order rate constant for peroxynitrite isomerization in the absence of Mt-trHbN(III) (i.e., l 0) were determined from the linear dependence of l ^obs values on the Mt-trHbN(III) concentration according to Equation 9 [60]–[67]: [drawing 13] (9)
The value of K for isoniazid binding to Mt-trHbN(III) was determined from the dependence of l on the drug concentration (i.e., 3.0×10^−5 M ≤ [isoniazid] ≤4.0×10^−4 M) according to Equation 11 [60]–[67]: [drawing 15] (11) where l on ^app is the value of l on in the presence of isoniazid.

[4] = absence of Mt-trHbN(III), isoniazid and azide

[C-]#[O+] [CO]
amplitude (1 – a) of the CO binding process (slow phase) (Mt-trHbN(II)): 0.62 | amplitude a of the CO binding process (Mt-trHbN(II)): 1 | amplitude a of the CO binding process (isoniazid-free fraction, fast phase) (Mt-trHbN(II)): 0.38 | f obs, pseudo-first order rate constant for CO binding (Mt-trHbN(II)): 170 s⁻¹ | f obs, pseudo-first order rate constant for CO binding (fast phase) (Mt-trHbN(II)): 170 s⁻¹ | f obsi, pseudo-first order rate constant for CO binding in the presence of isoniazid (slow phase) (Mt-trHbN(II)): 1.5 s⁻¹ | second-order association rate constant f on for CO binding to Mt-trHbN(II) (Mt-trHbN(II); pH 7): f on = (3.8±0.5)×10^6 M^−1 s^−1 | f off for CO binding to sperm whale Mb(II) (Sperm whale Mb(II)): f off = 1.9×10^−2 s^−1h | f on for CO binding to sperm whale Mb(II) (Sperm whale Mb(II)): f on = 5.1×10^5 M^−1 s^−1 ^h

[N-]=[N+]=[N-] [azide]
average yield of NO2 – (Mt-trHbN(III) [1]): 26% | average yield of NO3 – (Mt-trHbN(III) [1]): 74% | NO2 – (Mt-trHbN(III) [1]; pH 7): 26±4% | NO3 – (Mt-trHbN(III) [1]; pH 7): 73±7% | NO3 – + NO2 – (Mt-trHbN(III) [1]; pH 7): 99% | average yield of NO2 – [4]: 29% | average yield of NO3 – [4]: 72% | NO2 – (pH 7): 27±6% | NO3 – (pH 7): 74±5% | NO3 – + NO2 – (pH 7): 101% | first-order dissociation rate constant h off (Mt-trHbN(III) [2]): h off = (7.1±0.8)×10^−1 s^−1 | second-order association rate constant h on (Mt-trHbN(III) [2]): h on = (9.6±1.1)×10^3 M^−1 s^−1 | Kd (Mt-trHbN(III) [2]; read-out: H calculated from kinetic parameters (h off/h on)): 74 µM | Kd (Mt-trHbN(III) [2]; read-out: dissociation equilibrium constant H for azide binding to Mt-trHbN(III)): 73 µM | h off for azide binding to sperm whale Mb(III) (Sperm whale Mb(III)): h off = 3.0×10^−1 s^−1 ^d | h on for azide binding to sperm whale Mb(III) (Sperm whale Mb(III)): h on = 4.4×10^3 M^−1 s^−1 ^d | Kd (Sperm whale Mb(III); read-out: H for azide binding to sperm whale Mb(III)): 50 µM | Mt-trHbN(III) catalysis of peroxynitrite isomerization (Mt-trHbN(III) [3]): does not catalyze the isomerization of peroxynitrite
